This note sets out measurements from patent US9938240B2, “Fluorinated derivatives of 3-hydroxypyridin-4-ones” (Apotex Technologies Inc., priority 2009, dated 2018).

Format in all cases: physicochemical
Data set [1] can be described thus: Stepwise formation constants for Cu-ligand system by potentiometric titration. The note with it: for pCu^2+: pH 7.4, ligand 10 μM, metal 1 μM. The method, then:
In a typical experiment, the sample solution was prepared by the following method: Apo7041 (126.1 mg, 0.50 mmol) was weighed into a 50 mL volumetric flask, and about 35 mL of a mixed solvent (0.1 M NaCl aqueous:MeOH, 1:1, v:v) was added. The mixture was sonicated for 10 min to give a clear colorless solution. The copper stock solution (atomic absorption standard, Aldrich, 6.33 mL, 0.10 mmol) was pipetted into the solution. More of the mixed solvent was added to volume and the resulting solution was vortexed to mix. The molar ratio between the total copper and the total Apo7041 was 1/5. 40 mL of the solution was transferred into a T70 titration cell by using a 10 mL digital pipet. A 6.000 N sodium hydroxide solution (300 μL) was added, and the pH (12.17) of the solution was recorded. The solution was allowed to equilibrate at 22° C. for 5 min.
The solution was then titrated against a 6.000 N hydrochloric acid solution at 22° C. by using a Mettler Toledo T70 autotitrator, until the pH reached 1.5. The volume of acid added and the pH reading were recorded. Thus, 533 measurements were taken for this experiment.
The data set of pH vs. acid volume for Cu-Apo7041 system was analyzed using Hyperquad 2000 software (version 2.1, Peter Gans, University of Leeds). The formation constants for Cu-Apo7041 system were optimized using the model shown in the first column of Table 29C. The results are shown in the second and third column.
(§1) pM^n+ is defined as −log [M(H2O)m]^n+ at physiological conditions, i.e.: pH 7.4, a ligand concentration of 10 μM, and a metal concentration of 1 μM. To calculate pM^n+ for a MLn system, βn and pKa values are needed (βn are the formation constants for M^n++n L^−⇄MLn; pKa are the equilibrium constants for L^−+n H^+⇄LHn^(n-1)+). The pM^n+ is calculated using the HySS software (HYSS© 2000 Protonic Software).

Data set [2] is described as follows: pKa determination by potentiometric titration. Here is the method:
The pKa values of ligands were determined by potentiometric titration when a ligand concentration >1×10^−2 M in water could be prepared. In a typical experiment, the sample solution (1.00×10^−2 M) was prepared by the following method: Apo7041 (125.4 mg) was weighed into a 50 mL volumetric flask, and about 40 mL of 0.1 M NaCl was added. The mixture was sonicated for 10 min to give a clear colorless solution. More of the 0.1 M NaCl was added to volume and the resulting solution was vortexed to mix. 40 mL of the solution was transferred into a T70 titration cell by using a 10 mL digital pipet A 6.000 N sodium hydroxide solution (127 μL, 1.9 equiv) was added, and the pH (11.82) of the solution was recorded. The solution was allowed to equilibrate at 22° C. for 5 min.
The solution was then titrated against a 6.000 N hydrochloric acid solution at 22° C. by using a Mettler Toledo T70 autotitrator, until the pH reached 1.5. The volume of acid added and the pH reading were recorded. Thus, 501 measurements were taken for this experiment.
The data set of pH vs. acid volume was analyzed using Hyperquad 2000 software (version 2.1, Peter Gans, University of Leeds). The pKa values were obtained using the model: L^−+H^+⇄LH (pKa1), LH+H^+⇄LH2^+, and LH2^++H^+⇄LH3^2+ (pKa3).
The pKa values of Apo7041 in the same mixed solvent were also determined by potentiometric titration using the procedure described in Example 1.

Data set [3] is described as follows: Stepwise formation constants for Zn-ligand system by potentiometric titration. The note with it: for pZn^2+: pH 7.4, ligand 10 μM, metal 1 μM. The method, then:
In a typical experiment, the sample solution was prepared by the following method: Apo7041 (126.3 mg, 0.50 mmol) was weighed into a 50 mL volumetric flask, and about 35 mL of a mixed solvent (0.1 M NaCl aqueous:MeOH, 1:1, v:v) was added. The mixture was sonicated for 10 min to give a clear colorless solution. The zinc stock solution (atomic absorption standard, Aldrich, 6.64 mL, 0.10 mmol) was pipetted into the solution followed by addition of sodium hydroxide solution (6.000 N, 300 μL). More of the mixed solvent was added to volume and the resulting solution was vortexed to mix. The molar ratio between the total zinc and the total Apo7041 was 1/5. 40 mL of the solution was transferred into a T70 titration cell by using a 10 mL digital pipet. A 6.000 N sodium hydroxide solution (160 μL) was added, and the pH (11.95) of the solution was recorded. The solution was allowed to equilibrate at 22° C. for 5 min.
The solution was then titrated against a 6.000 N hydrochloric acid solution at 22° C. by using a Mettler Toledo T70 autotitrator, until the pH reached 1.5. The volume of acid added and the pH reading were recorded. Thus, 523 measurements were taken for this experiment.
The data set of pH vs. acid volume for Zn-Apo7041 system was analyzed using Hyperquad 2000 software (version 2.1, Peter Gans, University of Leeds). The formation constants for Zn-Apo7041 system were optimized using the model shown in the first column of the table 29D. The results are shown in the second and third column.
as §1

The mark [4] stands for this setting: 0.1M aqueous NaCl/MeOH, 1/1, v/v.
Where [5] appears, read: 0.1M aqueous NaCl (Table 1, Fe3+ chelation, footnote b).
Setting [6] is: 0.1M aqueous NaCl/MeOH, 1/1, v/v, listed as drawing 104.
Where [7] appears, read: potentiometric, 0.1 M NaCl, 22° C.

For `Cc1c(O)c(=O)ccn1C` [Deferiprone, 3-hydroxy-1,2-dimethylpyridin-4(1H)-one, reference compound], in data set [1] (setting [4]), the “Log β120 (Cu2+)” value is on record as 20.5, the “Logβ1 (Cu2+)” value was “Logβ1 = 10.8” and the “Logβ2 (Cu2+)” value is reported as “Logβ2 = 20.5”. In addition, the “pCu^2+” value in data set [1] is recorded as “pCu^2+ = 9.9”. In data set [2] (setting [5]), the pKa1 result is on record as “pKa1 = 9.92” and the pKa2 entry is on record as “pKa2 = 3.55”. In addition, in data set [3] (setting [4]), the “Log β120 (Zn2+)” value was found to be 15.0, the “Logβ1 (Zn2+)” value is “Logβ1 = 8.1” and the “Logβ2 (Zn2+)” value is on record as “Logβ2 = 15.0”. In addition, the “pZn^2+” value in data set [3] was “pZn^2+ = 6.3”.

`CN(C)C(c1c(O)c(=O)ccn1C)C(F)(F)F` (stereo not drawn) [Apo7041, 2-[1-(dimethylamino)-2,2,2-trifluoroethyl]-3-hydroxy-1-methylpyridin-4(1H)-one]: in data set [1] (setting [4]), the “Log β120 (Cu2+)” value amounted to 17.3, the “Log β121 (Cu2+)” value is 23.0, the “Log β122 (Cu2+)” value came out at 27.9 and the “Logβ111 (Cu2+)” value is “Logβ111 = 14.1”. Further, in data set [1] (setting [6]), the “Log β120 (Cu2+)” value is “Logβ120 = 17.3”, the “Log β121 (Cu2+)” value is listed as “Logβ121 = 23.0” and the “Log β122 (Cu2+)” value is listed as “Logβ122 = 27.9”. Moreover, the “pCu^2+” value in data set [1] is “pCu^2+ = 7.7”. Besides, in data set [2] (0.1 M NaCl), the “pKa1 + pKa2” value amounted to 12.91 and the “pKa1 + pKa2 + pKa3” value came to 14.57. Also, in data set [2] (setting [4]), the “pKa1 + pKa2 + pKa3” value is 15.3 and the pKa3 entry is given as “pKa3 = 2.0”. In addition, the pKa1 entry in data set [2] (setting [6]) is listed as “pKa1 = 10.1”. Also, in data set [2] (setting [7]), the pKa1 was 9.39, the pKa2 is reported as 3.52 and the pKa3 is listed as 1.66. Further, in data set [3] (setting [4]), the “Log β111 (Zn2+)” value was 13.1, the “Log β120 (Zn2+)” value turned out to be 13.2 and the “Log β121 (Zn2+)” value amounted to 19.6. Moreover, in data set [3] (setting [6]), the “Log β111 (Zn2+)” value is listed as “Logβ111 = 13.1”, the “Log β120 (Zn2+)” value is on record as “Logβ120 = 13.2” and the “Log β121 (Zn2+)” value is “Logβ121 = 19.6”. For the same molecule, in data set [3], the “pZn^2+” value is “pZn^2+ = 6.0”.
